Test results taken from PMC10536189 (Microorganisms, 2023).
Read-outs that look alike come from different tables or passages of the source.

Tested on: M. tuberculosis
Format: cell-based, Mycobacterium tuberculosis (laboratory strain H37Rv)
Settings: for Time to Positivity (Days.Hours) Experiment 2a / Time to Positivity (Days.Hours) Experiment 2b: diluted inoculum; for Time to Positivity (Days.Hours) Experiment 2a: technical repeat 2a, TB control (no peptide) 15.01; for Time to Positivity (Days.Hours) Experiment 2b: technical repeat 2b, TB control (no peptide) 15.20; for Time to Positivity (Days.Hours) Experiment 1a / Time to Positivity (Days.Hours) Experiment 1b: less diluted inoculum; for Time to Positivity (Days.Hours) Experiment 1a: technical repeat 1a, TB control (no peptide) 7.02; for Time to Positivity (Days.Hours) Experiment 1b: technical repeat 1b, TB control (no peptide) 7.01; for Average % Faster than Control: negative = slower
[1] = peptide 10 µg/mL, overall average of the averages of experiments 1a/1b and 2a/2b
[2] = crude peptide 10 µg/mL, average of experiments 1 and 2
[3] = crude peptide 10 µg/mL, MGIT, independent experiment 1, Control (TB only) 11.10, inoculum emulsified through G25 needle
[4] = crude peptide 10 µg/mL, MGIT, independent experiment 2, Control (TB only) 9.10, inoculum emulsified through G25 needle

Row | Substance | Time to Positivity (Days.Hours) Experiment 2a (peptide 10 µg/mL, MGIT) [Days.Hours] | Time to Positivity (Days.Hours) Experiment 2b (peptide 10 µg/mL, MGIT) [Days.Hours] | Time to Positivity (Days.Hours) Experiment 1a (peptide 10 µg/mL, MGIT) [Days.Hours] | Time to Positivity (Days.Hours) Experiment 1b (peptide 10 µg/mL, MGIT) [Days.Hours] | Average % Faster than Control [1] [%] | Effect on TTP of MTB in words (peptide 10 µg/mL, MGIT) | Time to Positivity (Day.Hours) Experiment 1 [Day.Hours] | Time to Positivity (Day.Hours) Experiment 2 [Day.Hours] | Average % Faster than Control [2] [%] | Time to Positivity (Day.Hours) Experiment 1 [3] [Day.Hours] | Time to Positivity (Day.Hours) Experiment 2 [4] [Day.Hours]
1 | 3: peptide from the authors' library (WKWRVRVTI) [Peptide 3] | 14.22 | 15.02 | 6.08 | 6.17 | 4.0 |  |  |  |  |  | 
2 | 5: peptide from the authors' library; same sequence as P8/Designed * (FFIYVWRRR) [Peptide 5] | 14.06 | 14.16 | 5.21 | 6.08 | 8.8 |  |  |  |  |  | 
3 | 9: peptide from the authors' library; same sequence as P9/Designed (KRRWRIWLV) [Peptide 9] | 15.08 | 14.21 | 6.07 | 6.04 | 5.8 |  |  |  |  |  | 
4 | 12: peptide from the authors' library (RRRIKIRWY) [Peptide 12] | 14.08 | 14.22 | 6.14 | 5.20 | 10.2 | strong hormetic response |  |  |  |  | 
5 | 16: peptide from the authors' library (RLKRWWKFL) [Peptide 16] | 14.17 | 14.20 | 6.01 | 5.22 | 8.6 |  |  |  |  |  | 
6 | 20: peptide from the authors' library (KWKWWWRKI) [Peptide 20] | 14.01 | 14.16 | 6.11 | 6.00 | 8.3 |  |  |  |  |  | 
7 | 22: peptide from the authors' library (IRMRIRVLL) [Peptide 22] | 15.19 | 15.10 | 6.00 | 6.07 | 4.7 |  |  |  |  |  | 
8 | 29: peptide from the authors' library (RWRWWWRVY) [Peptide 29] | 15.12 | 15.01 | 6.13 | 6.00 | 4.9 |  |  |  |  |  | 
9 | 49: peptide from the authors' library (VRLRIRVRVIRK) [Peptide 49] | 15.12 | 15.02 | 5.22 | 6.06 | 6.2 |  |  |  |  |  | 
10 | 59: peptide from the authors' library (ILKWKRKWWKWRR) [Peptide 59] | 13.19 | 12.22 | 5.17 | 5.22 | 14.5 |  |  |  |  |  | 
11 | 60: peptide from the authors' library (ILKWKIFKWKWFR) [Peptide 60] | 14.19 | 14.16 | 6.03 | 6.02 | 7.9 |  |  |  |  |  | 
12 | 61: peptide from the authors' library (ILKWKTKWWKWFR) [Peptide 61] | 13.11 | 14.21 | 6.20 | 5.23 | 10.4 |  |  |  |  |  | 
13 | 62: peptide from the authors' library (ILKWKMFKWKWFR) [Peptide 62] | 16.20 | 17.16 | 6.07 | 7.02 | −3.4 | delayed TTP |  |  |  |  | 
14 | 63: peptide from the authors' library; same sequence as Indolicidin/Cow (ILPWKWPWWPWRR) [Peptide 63] | 17.01 | 17.10 | 6.22 | 6.22 | −5.5 | delayed TTP |  |  |  |  | 
15 | 64: peptide from the authors' library (RLARIVVIRVAR) [Peptide 64] | 15.21 | 16.13 | 6.19 | 6.16 | −1.4 |  |  |  |  |  | 
16 | 65: peptide from the authors' library (RGARIVVIRVAR) [Peptide 65] | 16.11 | 16.01 | 6.16 | 6.03 | 0.8 |  |  |  |  |  | 
17 | 66: peptide from the authors' library (RRARIVVIRVAR) [Peptide 66] | 17.06 | 17.16 | 6.05 | 6.16 | −3.5 |  |  |  |  |  | 
18 | 67: peptide from the authors' library (RLWRIVVIRVAR) [Peptide 67] | 16.00 | 16.05 | 6.19 | 6.11 | −0.4 |  |  |  |  |  | 
19 | 68: peptide from the authors' library (RLRRIVVIRVAR) [Peptide 68] | 15.00 | 15.23 | 6.09 | 6.17 | 2.3 |  |  |  |  |  | 
20 | 71: peptide from the authors' library (RLWRIVVIRVKR) [Peptide 71] | 14.01 | 14.02 | 6.04 | 6.06 | 9.4 |  |  |  |  |  | 
21 | 76: peptide from the authors' library (VRWRIRVAVIRA) [Peptide 76] | 16.08 | 16.14 | 6.13 | 6.16 | −1.4 |  |  |  |  |  | 
22 | 77: peptide from the authors' library (VRLRIRVAVIRA) [Peptide 77] | 14.22 | 15.03 | 6.14 | 6.04 | 5.0 |  |  |  |  |  | 
23 | ALKAALLAILKIVRVI [CM-3/Designed] |  |  |  |  |  |  | 11.04 | 8.03 | 8.0 |  | 
24 | Bombolitin V/Bee: naturally occurring peptide, APD3, bee (INVLGILGLLGKALSHL) |  |  |  |  |  |  | 10.22 | 8.13 | 6.8 |  | 
25 | CM15/Bee venom: peptide from APD3, bee venom (KWKLFKKIGAVLKVL) |  |  |  |  |  |  | 10.19 | 8.01 | 10.0 |  | 
26 | Eumenitin/Wasp: naturally occurring peptide, APD3, wasp (LNLKGIFKKVASLLT) |  |  |  |  |  |  | 11.00 | 8.08 | 7.6 |  | 
27 | FFGSVLKLIPKIL [Temporin-PTa/Frog, naturally occurring peptide, APD3, frog] |  |  |  |  |  |  |  |  | 6.3 | 11.07 | 8.08
28 | FFHHIFRGIVHVGKTI [Piscidin 1/Fish *, fragment of naturally occurring peptide, APD3, fish] |  |  |  |  |  |  |  |  | 7.8 | 10.18 | 8.12
29 | FFIYVWRRR [P8/Designed *] |  |  |  |  |  |  | 11.16 | 8.22 | 1.6 |  | 
